Test results: ChEMBL document CHEMBL1201862, “PubChem BioAssay data set” (2004)
Where a name gives a salt, the structure may show the parent alone. The source made the active and inactive calls.

Columns and labels:
[1] = THP-1 cell cytotoxicity, dose response, cytotoxicity control for non-replicating M. tuberculosis project (AID 489025); type: functional
[2] = HepG2 cell cytotoxicity, dose response, cytotoxicity control for non-replicating M. tuberculosis project (AID 489018); type: functional; conditions: Mycobacterium tuberculosis
[3] = Vero E6 cell cytotoxicity, dose response, cytotoxicity control for non-replicating M. tuberculosis project, secondary assay (AID 492998); type: functional, VeroE6; conditions: Vero C1008
[4] = cells; type: functional
[5] = growth suppression of PTEN-null colon cells, dose response, cell-based, HCT116 PTEN knockout (AID 1047); type: functional;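 further: HCT116 colon tumor cells with PTEN knocked out; cells exposed to compound for 60 hours before readout; potency for loss of cell viability measured by luminescence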
[6] = growth suppression of beta-catenin-knockout colon cells, dose response, cell-based, HCT116, human colon tumor (AID 1045); type: functional;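 further: HCT116 colon tumor cells with beta catenin knocked out; cells exposed to compound for 60 hours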
[7] = cytotoxicity in HPDE-C7 cells, cell-based, fluorescence, HTS (AID 430); type: functional; conditions: Homo sapiens
[8] = cytotoxicity in KRAS-transformed pancreatic duct cells, primary screen, cell-based, fluorescence, HTS (AID 431); type: functional; conditions: Homo sapiens;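 further: cell line used: HPDE-C7K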
[9] = molecular target: FAD-linked sulfhydryl oxidase ALR (Homo sapiens, UniProt P55789); test: inhibitors of human ALR sulfhydryl oxidase, dose response, biochemical, H2O2 detection, luminescence, cherry-pick (AID 493248)
[10] = molecular target: Voltage-gated inwardly rectifying potassium channel KCNH2 (Homo sapiens, UniProt Q12809); conditions: Potency;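 further: confirmatory quantitative high-throughput screen measuring inhibition of hERG channel activity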
[11] = molecular target: Peroxisome proliferator-activated receptor gamma/Nuclear receptor coactivator 1 (Homo sapiens, UniProt P37231); test: (§1) TR-FRET dose response biochemical High Throughput Screening assay for agonists of the steroid receptor coactivator 1 (SRC-1) recruitment by the peroxisome proliferator-activated receptor gamma (PPAR gamma): non-selective agonists. [Related pubchem assays (depositor defined):AID1300, AID1808, AID504735, AID631]; type: protein assay
[12] = molecular target: Peroxisome proliferator-activated receptor gamma/Nuclear receptor coactivator 3 (Homo sapiens, UniProt P37231); test: as §1, with “3 (SRC-3)” for “1 (SRC-1)”, “assays: 1301 (Confirmation screen.), 1048 (Primary screen.)]” for “assays (depositor defined):AID1300, AID1808, AID504735, AID631]”; type: functional
[13] = molecular target: Peroxisome proliferator-activated receptor gamma/Nuclear receptor coactivator 2 (Homo sapiens, UniProt P37231); test: TR-FRET dose response biochemical High Throughput Screening assay for agonists of the steroid receptor coactivator 2 (SRC-2) recruitment by the peroxisome proliferator-activated receptor gamma (PPAR gamma): non-selective agonists. [Related pubchem assays: 1297, 1032 ]; type: functional
[14] = A Cell Based Secondary Assay To Explore Cytotoxicity of Compounds that Sensitize Mycobacterium Tuberculosis to Beta-Lactam Antibiotics.; type: functional
[15] = inhibitors of intracellular T. cruzi replication, confirmation, NIH3T3 host cells, beta-gal luminescence (AID 2044); type: functional, cell-based;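 further: intracellular parasites grown in NIH/3T3 mouse fibroblasts as host cells; luminescent beta-galactosidase reporter signal from transgenic T. cruzi replicating inside host cells; inhibitors lower the luminescence signal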
[16] = cytotoxicity toward NIH3T3 fibroblasts, dose response, counter-screen, cell-based, ATP luminescence, mouse fibroblasts (AID 2010); type: functional;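 further: cells exposed to compound for about 90 hours before reading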
[17] = HEp-2 cell cytotoxicity, dose response, cytotoxicity control for RSV inhibitor project, HTS (AID 2410); type: functional; conditions: human respiratory syncytial virus
[18] = test system: BJ; test: cytotoxicity toward BJ-TERT fibroblasts, dose response, cell-based, RAS-independent, luminescence (AID 1933); type: functional; conditions: Homo sapiens
[19] = test system: BJ; test: cells; type: functional, cell-based; conditions: Homo sapiens
[20] = test system: BJ; test: cytotoxicity toward BJ-TERT-LT-ST fibroblasts, dose response, cell-based, RAS-independent, luminescence (AID 1935); type: functional; conditions: Homo sapiens;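 further: BJ fibroblasts immortalized with TERT plus LT and ST oncogenes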
[21] = cytotoxicity toward DRD oncogenic fibroblasts, dose response, cell-based, non-viral oncogenic, luminescence (AID 1934); type: functional; conditions: Homo sapiens
[22] = test system: Vero; test: cells; type: functional, cell-based; conditions: Chlorocebus sabaeus
[23] = test system: Vero; test: cells; type: functional; conditions: Chlorocebus sabaeus
[24] = cells
[25] = molecular target: Cytochrome P450 2D6 (Homo sapiens, UniProt P10635);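 further: CYP2D6 member of a cytochrome P450 panel assay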
[26] = molecular target: T1, Cytochrome P450 1A2 (Homo sapiens, UniProt P05177);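 further: PubChem cytochrome P450 panel assay, CYP1A2 panel member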
T1 sequence (P05177 whole entry): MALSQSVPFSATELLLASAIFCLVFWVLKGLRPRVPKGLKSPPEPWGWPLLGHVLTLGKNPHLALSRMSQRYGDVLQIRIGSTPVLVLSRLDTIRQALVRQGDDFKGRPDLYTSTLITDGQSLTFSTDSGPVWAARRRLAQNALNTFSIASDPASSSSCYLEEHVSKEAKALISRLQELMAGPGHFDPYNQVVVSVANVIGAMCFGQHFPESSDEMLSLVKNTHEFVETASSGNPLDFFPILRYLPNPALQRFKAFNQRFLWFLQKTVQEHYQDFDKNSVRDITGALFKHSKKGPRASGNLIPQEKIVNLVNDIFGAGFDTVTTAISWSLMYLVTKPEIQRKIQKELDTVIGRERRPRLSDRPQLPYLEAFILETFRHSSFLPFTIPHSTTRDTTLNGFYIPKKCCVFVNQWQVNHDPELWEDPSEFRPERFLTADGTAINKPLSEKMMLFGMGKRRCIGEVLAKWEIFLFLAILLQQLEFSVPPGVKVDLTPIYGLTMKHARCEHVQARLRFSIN

[27] = insulin promoter down-regulators in MIN6 cells, imaging, high-content screening, mouse beta cells (AID 1628); type: functional
[28] = cytotoxicity in MIN6 insulinoma cells, dose response, cytotoxicity control, cell-based, mouse insulinoma (AID 2122); type: functional;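 further: confirmatory high-throughput counterscreen run to flag cytotoxic compounds; mouse MIN-6 beta cells carrying an insulin promoter eGFP reporter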

Chain of Voltage-gated inwardly rectifying potassium channel KCNH2 (Q12809 whole entry): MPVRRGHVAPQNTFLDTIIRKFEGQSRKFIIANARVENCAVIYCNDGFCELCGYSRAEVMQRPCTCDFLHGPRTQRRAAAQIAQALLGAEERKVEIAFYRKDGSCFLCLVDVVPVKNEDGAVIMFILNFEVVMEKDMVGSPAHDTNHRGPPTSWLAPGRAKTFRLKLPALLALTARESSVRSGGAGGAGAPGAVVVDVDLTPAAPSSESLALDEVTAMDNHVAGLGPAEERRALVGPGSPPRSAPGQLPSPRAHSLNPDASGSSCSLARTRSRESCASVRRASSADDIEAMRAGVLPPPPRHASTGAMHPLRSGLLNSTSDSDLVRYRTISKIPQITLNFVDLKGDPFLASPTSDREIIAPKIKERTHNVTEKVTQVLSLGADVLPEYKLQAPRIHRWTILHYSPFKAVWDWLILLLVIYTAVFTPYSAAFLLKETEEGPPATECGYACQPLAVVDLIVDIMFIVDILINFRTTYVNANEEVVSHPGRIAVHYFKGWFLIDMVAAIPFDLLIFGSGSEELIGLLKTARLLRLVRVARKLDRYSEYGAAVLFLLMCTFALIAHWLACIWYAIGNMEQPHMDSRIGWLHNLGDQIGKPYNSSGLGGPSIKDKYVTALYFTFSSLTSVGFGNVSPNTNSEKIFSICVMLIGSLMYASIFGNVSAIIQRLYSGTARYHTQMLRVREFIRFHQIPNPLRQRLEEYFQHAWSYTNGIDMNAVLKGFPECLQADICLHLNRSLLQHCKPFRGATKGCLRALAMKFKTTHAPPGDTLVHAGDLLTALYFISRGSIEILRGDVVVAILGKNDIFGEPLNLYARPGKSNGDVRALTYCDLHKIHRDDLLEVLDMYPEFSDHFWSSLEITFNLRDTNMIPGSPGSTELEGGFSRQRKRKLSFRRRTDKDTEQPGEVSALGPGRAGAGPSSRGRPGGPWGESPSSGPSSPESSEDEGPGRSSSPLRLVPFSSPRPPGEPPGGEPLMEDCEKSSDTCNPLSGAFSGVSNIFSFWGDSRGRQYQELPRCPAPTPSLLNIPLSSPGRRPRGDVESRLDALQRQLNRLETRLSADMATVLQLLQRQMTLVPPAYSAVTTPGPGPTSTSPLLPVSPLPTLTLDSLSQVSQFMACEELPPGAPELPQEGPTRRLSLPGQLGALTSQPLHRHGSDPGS
Chain of Peroxisome proliferator-activated receptor gamma/Nuclear receptor coactivator 3 (P37231 whole entry): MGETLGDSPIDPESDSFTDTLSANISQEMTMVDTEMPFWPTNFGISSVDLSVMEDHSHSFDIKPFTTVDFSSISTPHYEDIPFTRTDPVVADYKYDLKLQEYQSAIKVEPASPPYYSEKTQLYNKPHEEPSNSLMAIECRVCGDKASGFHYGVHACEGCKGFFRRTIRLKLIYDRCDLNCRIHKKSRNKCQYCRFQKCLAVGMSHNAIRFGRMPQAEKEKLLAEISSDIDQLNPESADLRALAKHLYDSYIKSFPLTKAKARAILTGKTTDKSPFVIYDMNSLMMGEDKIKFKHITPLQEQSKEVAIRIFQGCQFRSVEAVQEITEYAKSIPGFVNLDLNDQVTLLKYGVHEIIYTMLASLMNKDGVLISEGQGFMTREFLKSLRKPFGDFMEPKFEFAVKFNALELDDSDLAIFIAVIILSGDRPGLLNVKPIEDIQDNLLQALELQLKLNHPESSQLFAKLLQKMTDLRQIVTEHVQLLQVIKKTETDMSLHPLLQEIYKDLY
Chain of Peroxisome proliferator-activated receptor gamma/Nuclear receptor coactivator 3 (Q9Y6Q9 whole entry, further chain): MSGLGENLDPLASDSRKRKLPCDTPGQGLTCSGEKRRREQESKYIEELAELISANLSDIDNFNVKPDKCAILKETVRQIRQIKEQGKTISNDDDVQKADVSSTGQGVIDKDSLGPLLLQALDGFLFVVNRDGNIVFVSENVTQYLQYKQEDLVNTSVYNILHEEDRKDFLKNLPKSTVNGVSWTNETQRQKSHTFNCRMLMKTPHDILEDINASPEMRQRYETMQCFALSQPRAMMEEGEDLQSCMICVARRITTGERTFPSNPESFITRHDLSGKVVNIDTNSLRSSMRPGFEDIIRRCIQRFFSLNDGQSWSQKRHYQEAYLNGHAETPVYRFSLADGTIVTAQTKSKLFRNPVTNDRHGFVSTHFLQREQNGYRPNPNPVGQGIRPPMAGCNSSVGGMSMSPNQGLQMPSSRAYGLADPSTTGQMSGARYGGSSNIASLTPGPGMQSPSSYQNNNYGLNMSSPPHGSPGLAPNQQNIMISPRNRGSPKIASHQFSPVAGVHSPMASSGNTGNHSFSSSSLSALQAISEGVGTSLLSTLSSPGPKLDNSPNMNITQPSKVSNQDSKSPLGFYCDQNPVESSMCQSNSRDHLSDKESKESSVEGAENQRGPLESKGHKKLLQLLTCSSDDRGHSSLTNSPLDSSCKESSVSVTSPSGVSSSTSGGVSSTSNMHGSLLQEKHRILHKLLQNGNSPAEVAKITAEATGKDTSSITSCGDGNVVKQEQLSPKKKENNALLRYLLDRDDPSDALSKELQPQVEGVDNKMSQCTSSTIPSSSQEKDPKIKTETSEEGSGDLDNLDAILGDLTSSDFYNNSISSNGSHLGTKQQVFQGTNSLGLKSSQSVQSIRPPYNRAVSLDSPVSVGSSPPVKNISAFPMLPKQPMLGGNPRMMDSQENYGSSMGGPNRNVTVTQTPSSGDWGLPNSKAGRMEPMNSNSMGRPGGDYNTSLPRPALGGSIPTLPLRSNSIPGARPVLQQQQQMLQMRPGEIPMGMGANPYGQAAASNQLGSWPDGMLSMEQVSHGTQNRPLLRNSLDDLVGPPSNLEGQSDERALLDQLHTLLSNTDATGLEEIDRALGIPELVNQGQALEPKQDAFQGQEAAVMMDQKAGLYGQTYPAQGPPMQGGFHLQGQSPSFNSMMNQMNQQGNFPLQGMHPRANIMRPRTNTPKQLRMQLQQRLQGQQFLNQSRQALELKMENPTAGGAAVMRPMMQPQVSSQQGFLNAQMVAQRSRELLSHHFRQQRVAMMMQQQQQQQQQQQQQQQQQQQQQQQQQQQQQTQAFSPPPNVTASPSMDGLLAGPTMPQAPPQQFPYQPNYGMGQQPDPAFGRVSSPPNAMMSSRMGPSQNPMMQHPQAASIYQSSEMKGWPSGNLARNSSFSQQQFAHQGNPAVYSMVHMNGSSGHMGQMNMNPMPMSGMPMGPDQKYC
Chain of Peroxisome proliferator-activated receptor gamma/Nuclear receptor coactivator 1 (P37231 whole entry): as the sequence (P37231 whole entry) above
Chain of Peroxisome proliferator-activated receptor gamma/Nuclear receptor coactivator 1 (Q15788 whole entry, further chain): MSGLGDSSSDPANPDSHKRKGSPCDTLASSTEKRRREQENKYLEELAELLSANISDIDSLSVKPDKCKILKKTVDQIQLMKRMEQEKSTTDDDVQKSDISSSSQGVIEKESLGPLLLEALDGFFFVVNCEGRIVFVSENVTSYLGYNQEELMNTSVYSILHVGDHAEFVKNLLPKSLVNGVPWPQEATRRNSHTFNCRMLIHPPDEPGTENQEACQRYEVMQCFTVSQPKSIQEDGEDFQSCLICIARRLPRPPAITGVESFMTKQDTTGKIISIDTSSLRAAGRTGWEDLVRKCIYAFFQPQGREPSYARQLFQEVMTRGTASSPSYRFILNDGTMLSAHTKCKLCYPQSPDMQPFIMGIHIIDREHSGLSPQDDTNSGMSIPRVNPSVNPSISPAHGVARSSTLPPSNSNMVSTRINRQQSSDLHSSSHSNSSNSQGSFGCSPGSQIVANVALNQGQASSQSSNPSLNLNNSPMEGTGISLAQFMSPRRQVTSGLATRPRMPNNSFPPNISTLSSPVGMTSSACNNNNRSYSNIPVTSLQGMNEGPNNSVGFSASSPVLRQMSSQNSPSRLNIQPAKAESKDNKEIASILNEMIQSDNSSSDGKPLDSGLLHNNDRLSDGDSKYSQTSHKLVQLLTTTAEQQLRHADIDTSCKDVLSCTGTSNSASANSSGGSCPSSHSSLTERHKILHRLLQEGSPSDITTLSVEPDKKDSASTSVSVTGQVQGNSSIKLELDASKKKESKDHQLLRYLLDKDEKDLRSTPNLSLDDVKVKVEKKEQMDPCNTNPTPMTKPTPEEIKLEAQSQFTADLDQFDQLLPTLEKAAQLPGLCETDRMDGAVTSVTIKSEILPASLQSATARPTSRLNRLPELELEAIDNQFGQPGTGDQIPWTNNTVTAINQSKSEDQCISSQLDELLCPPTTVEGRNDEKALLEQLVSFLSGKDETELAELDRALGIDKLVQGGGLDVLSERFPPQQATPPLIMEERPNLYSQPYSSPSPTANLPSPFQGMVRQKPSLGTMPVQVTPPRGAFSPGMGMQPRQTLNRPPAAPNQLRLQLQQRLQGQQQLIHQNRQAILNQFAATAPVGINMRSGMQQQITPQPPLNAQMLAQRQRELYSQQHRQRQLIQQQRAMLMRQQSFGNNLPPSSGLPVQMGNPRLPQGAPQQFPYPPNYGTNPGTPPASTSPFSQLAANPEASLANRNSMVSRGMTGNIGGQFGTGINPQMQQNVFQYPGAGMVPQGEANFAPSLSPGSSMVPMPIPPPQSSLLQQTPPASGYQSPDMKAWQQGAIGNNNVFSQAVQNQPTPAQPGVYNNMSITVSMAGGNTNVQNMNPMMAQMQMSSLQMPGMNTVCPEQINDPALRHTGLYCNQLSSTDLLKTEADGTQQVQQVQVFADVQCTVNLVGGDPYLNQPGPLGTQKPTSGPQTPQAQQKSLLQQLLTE

## Cc1[nH]n(-c2ccc(Cl)cc2)c(=O)c1N=Nc1cccnc1
[1]
  CC50: 26.7 µM (active)
[2]
  CC50: > 20 µM (active)
[3]
  CC50: 12.2 µM (active)
[4]
  IC50: 1.78 µM (active)

## Clc1cccc2c1Sc1ccccc1CC2N1CCNCC1 (centres undefined)
[5]
  EC50: 7.22 µM (active)
[6]
  EC50: 7.41 µM (active)
[1]
  CC50: 8.49 µM (active)
[2]
  CC50: 7.37 µM (active)
[3]
  CC50: 9.77 µM (active)
[4]
  IC50: 11.5 µM (active)

## CC(CN1c2ccccc2Sc2ccccc21)N(C)C (centres undefined) [PROMETHAZINE HYDROCHLORIDE]
[7]
  EC50: > 20 µM (not active)
[8]
  EC50: > 20 µM (not active)
[9]
  AC50: 0.367 µM (active)
[10]
  AC50: 15.8 µM (inconclusive)

## Clc1ccc(Cl)c(-c2ccc(/C=N/c3nc[nH]n3)o2)c1
[11]
  EC50: 13.7 µM (inactive)
[12]
  EC50: > 79.4 µM (not active)
[13]
  EC50: 12.6 µM (not active)

## CCOc1ccc(/N=c2\cc(-c3ccc(OC)cc3)oc3ccccc23)cc1
[14]
  CC50: > 40 µM (active)
[15]
  EC50: 2.64 µM (active)
[5]
  EC50: 47.5 µM (active)
[16]
  EC50: > 60 µM (not active)
[6]
  EC50: 60.6 µM (active)

## Cc1cccc(-n2c(SCC(=O)Nc3ncc(Cl)cc3Cl)nc3ccccc32)c1
[17]
  CC50: 2.36 µM (active)
[18]
  EC50: 33.7 µM (active)
[19]
  EC50: 50.5 µM (inconclusive)
[20]
  EC50: > 150 µM (not active)
[21]
  EC50: 94.2 µM (active)
[22]
  IC50: 0.56 µM (active)
[23]
  CC50: > 25 µM (active)
[24]
  IC50: 1.26 µM (active)

## CC1(C)CCC2=C(O1)c1ccccc1C(=O)C2=O [LAPACHONE]
[10]
  AC50: 15.8 µM (inconclusive)

## O=C(c1ccc2c(c1)N(Cc1cccc(Cl)c1)C(=O)c1ccccc1S2(=O)=O)N1CCN(c2ccccn2)CC1
[22]
  IC50: 10.1 µM (active)
[23]
  CC50: > 25 µM (active)

## NNC(=O)c1ccncc1 [ISONIAZID]
[25]
  AC50: 12.6 µM (inconclusive)
[26]
  AC50: 6.31 µM (inconclusive)
[10]
  AC50: 35.5 µM (inconclusive)

## O=C(CSc1ncnc2c1oc1ccccc12)OCc1ccccc1
[11]
  EC50: > 2.94 µM (inactive)
[12]
  EC50: > 79.4 µM (not active)
[13]
  EC50: > 8.82 µM (not active)

## COc1ccccc1-c1cc(C(=O)N/N=C/c2cccs2)c2ccccc2n1
[17]
  CC50: 24.7 µM (active)
[22]
  IC50: 18.9 µM (active)
[23]
  CC50: > 25 µM (active)

## CN1CCN(c2ccccc2NC(=O)c2cccc(OCc3ccccc3)c2)CC1
[27]
  IC50: 4.3 µM (active)
[28]
  IC50: 4.17 µM (active)
